Several values for one entry are separate records, joined by “and”; a condition that tells them apart may be missing. Identical values can stand only once. Each block holds one compound with its values, some of them ahead of it.
Legend:
[1] = system: kidneys; assay: Renal uptake of [^111In-DTPA-D-Phe^1]octreotide in rats with amino acid administration; format: in vivo; settings: for inhibition at 400 mg/kg: Rattus norvegicus
Procedure: Furthermore, it has been described by De Jong et al. in J. Nucl. Med 37(8): 1388-1392 (1996) that uptake in the rat kidneys of the [^111In-DTPA-D-Phe^1]octreotide can be inhibited by 50% by intravenous administration of the amino acid L-lysine alone (400 mg/kg). In a further article by Bernard et al. in J. Nucl.
L-arginine alone gave a reduction of 20-30% at an equimolar dose. In human studies 15, 21 and 40% reduction of kidney uptake of [^111In-DTPA-D-Phe^1]octreotide was reached using a dose of 25, 50 and 75 g L-lysine, respectively. […] Hyperkalemia may result in acute and life-threatening cardiotoxicity.

[2] = system: kidneys; assay: Kidney uptake of ^111In-pentetreotide in patients with amino acid infusion (planar scintigraphy and dosimetry); format: in vivo, humans; settings: for reduction of kidney uptake of [^111In-DTPA-D-Phe^1]octreotide: human studies
Procedure: A 1000 mL infusion containing 25 g L-lysine and 25 g L-arginine (Lys/Arg; see MATERIALS, paragraph A. for exact formulation) was administered intravenously to patients during 4 hours, starting 30 minutes prior to administration of the radioligand. One radioligand was [^111In-DTPA-D-Phe^1]octreotide (^111In-pentetreotide, OctreoScan®, Mallinckrodt Medical, Petten, The Netherlands) in a diagnostic amount of 220 MBq (9 patients). Each patient was also investigated on a separate occasion with 220 MBq ^111In-pentetreotide, but without any infusion. The other radioligand was [^177Lu-DOTA,Tyr^3]octreotate in a therapeutic amount of 1850 MBq (5 patients). Each patient was also investigated on a separate occasion with 1850 MBq [^177Lu-DOTA,Tyr^3]-octreotate, but without any infusion. The control experiment (5 patients) consisted of infusion of 1000 mL neutral infusion fluid without the amino acids (NaCl 0.45% plus Glucose 2.5%)over 4 hours, starting 30 min. prior to the injection of 220 MBq ^111In-pentetreotide.
24 Hours post infusion the uptake of the radioligand in the kidneys, spleen and liver was measured using planar scintigraphy and dosimetry, and for each patient the ratio between uptake in these organs during infusion with Lys/Arg and without Lys/Arg was calculated (Figures 1, 2 and 3).
At least 5 patients received one of the following amino acid preparations: • 1. AA (2030 mL cocktail of various amino acids; see MATERIALS, paragraph B, for the source and details) • 2. 25 g L-lysine in 500 mL (see MATERIALS, paragraph C, for exact formulation) • 3. 50 g lysine in 2000 mL (see MATERIALS, paragraph C, for exact formulation) • 4. 75 g lysine in 1500 mL (see MATERIALS, paragraph C, for exact formulation) • 5. 25 g L-lysine and 25 g L-arginine in 1000 mL (invention), (Lys/Arg; see MATERIALS, paragraph A. for exact formulation).
The preparations were given intravenously over 4 hours starting 30 minutes before treatment with the radioligand started. The radioligand was ^111Inpentetreotide, either in a diagnostic amount of 220 MBq, or in a therapeutic amount, 7 - 11 GBq. Each patient was his or her own control. The control consisted of treatment with the radioligand but without an amino acid preparation.
At 24 and 48 hours post infusion the ratio between tissue uptake in the left kidney in patients receiving an amino acid composition and the controls was determined by planar scintigraphy and dosimetry.

[3] = Serum potassium level in patients during amino acid infusion; format: in vivo, humans
Procedure: In an experiment of the invention 11 patients received an infusion over 4 hours of a solution containing 25 g L-lysine and 25 g L-arginine in 1000 mL (Lys/Arg; see MATERIALS, paragraph A. for exact formulation). The potassium level of these patients was measured in serum at t=0 hours and after 0.5, 1, 2, 4 and 5 hours.
As a control 6 patients received 75 g L-lysine in 1500 mL during 4 hours (see MATERIALS, paragraph C. for exact formulation).

[4] = Vomiting and symptoms in patients during amino acid infusion; format: in vivo, humans
Procedure: 26 patients received 1 to 5 therapeutic doses of 1-10 GBq ^90Y-DOTA,Tyr^3-octreotide, with concomitant infusion of a 2030 mL cocktail of various amino acids in 4 hours, starting 30 min. before the administration of the radiopharmaceutical (see MATERIALS, paragraph B. for exact details). In 11 of these 26 patients (42%), [being 20 of 84 treatments (24%)] one or more episodes of vomiting occurred, up to 30 episodes of severe vomiting per treatment.
In one of these 11 patients the vomiting was so severe during the 2 treatments with the above described regimen, that it was decided to use an infusion with 50 g of L-lysine instead of the infusion with the cocktail of various amino acids concomitant with their 3rd and 4th therapy with ^90Y-DOTA,Tyr^3-octreotide.
8 patients received multiple therapeutic doses of 7-11 GBq ^111In-pentetreotide. All received once a concomitant infusion of a 2030 mL cocktail of various amino acids in 4 hours, starting 30 min. before the administration of the radiopharmaceutical (see MATERIALS, paragraph B. for exact details). In 4 of these 8 patients (50%) vomiting occurred.
In these same 8 patients only 3 episodes […] of vomiting occurred during 22 treatments with 7-11 GBq ^111In-pentetreotide while they received 25 or 50 grams of L-lysine in 500 to 2000 mL (see MATERIALS, paragraph C. for exact details) over 4 hours, starting 30 min. before administration of the radiopharmaceutical, as concomitant infusions.
In an experiment of the invention 11 patients received an infusion over 4 hours of a solution containing 25 g L-lysine and 25 g L-arginine in 1000 mL (Lys/Arg; see MATERIALS, paragraph A. for exact formulation). Thirty min. after the start of the infusion they received a diagnostic dose of 220 MBq ^111Inpentetreotide. Ten patients had no symptoms during the infusion, in particular no vomiting. […] During the Lys/Arg infusion they vomited twice.
Five patients received the Lys/Arg infusion in the same manner as described above, but they received a therapeutic dose of 1850 MBq [^177Lu-DOTA,Tyr^3]octreotate, 30 min. after the start of the Lys/Arg infusion. None of these 5 patients had any symptoms at all, in particular no vomiting.
Until now the Lys/Arg infusion, 1000 mL in 4 hours concomitant with therapeutic doses of radioactive labelled peptides, has been administered to more than 30 patients, in total more than 80 occasions. Vomiting occurs in less than 5% of the occasions, and if it occurs it is most probably due to other causes.

[5] = Osmolarity of infusion fluids; format: physicochemical; settings: infusion fluid as prepared
[6] = system: kidneys; settings: Bernard et al.; cited from earlier work

Compound: NCCCC[C@H](N)C(=O)O [L-lysine]
inhibition at 400 mg/kg [1]: 50%
[^111In-DTPA-D-Phe^1]octreotide uptake reduction in the left kidney, rank among amino acid preparations (Figure 4) ([2]; 24 and 48 hours post infusion, 75 g L-lysine, 25 g L-lysine plus 25 g L-arginine): highest uptake reduction
reduction of kidney uptake of [^111In-DTPA-D-Phe^1]octreotide ([2]; dose of 25 g): 15%
reduction of kidney uptake of [^111In-DTPA-D-Phe^1]octreotide ([2]; dose of 50 g): 21%
reduction of kidney uptake of [^111In-DTPA-D-Phe^1]octreotide ([2]; dose of 75 g): 40%
hyperkalemia ([3]; 75 g L-lysine (Table 2), 25 g L-lysine plus 25 g L-arginine (Table 1)): severe hyperkalemia
patients with a maximum potassium level above the critical value of 6.0 mmol/L ([3]; 75 g in 1500 mL): 3 out of 6
maximum potassium (K) level in serum ([3]; 75 g in 1500 mL over 4 hours, single patients 12-17): 5.2 mmol/L and 6.8 mmol/L and 6.7 mmol/L and 5.4 mmol/L and 5.0 mmol/L and 6.3 mmol/L
patients with severe hyperkalemia ([3]; humans, total dose of 75 g): 50%
episodes of vomiting during treatments ([4]; 25 or 50 grams in 500 to 2000 mL over 4 hours, 7-11 GBq ^111In-pentetreotide, 3 episodes during 22 treatments, 8 patients): 9%
tolerability / toxicity ([4]; human studies, doses of 25 and 50 g): well tolerated without any toxicity noted
vomiting (conclusion from EXAMPLES 4, 5 and 6) ([4]; infusion over 4 hours): seldomly observed
episodes of vomiting ([4]; one patient, 50 g, 3rd therapy with ^90Y-DOTA,Tyr^3-octreotide): one
vomiting ([4]; one patient, 50 g, 4th therapy with ^90Y-DOTA,Tyr^3-octreotide): no vomiting at all
osmolarity [5]: ca. 400 mosmol/L

Compound: N=C(N)NCCC[C@H](N)C(=O)O [L-arginine]
reduction of renal uptake of [^111In-DTPA-D-Phe^1]octreotide in rats ([1]; alone, at an equimolar dose (to lysine 400 mg/kg)): 20-30%

patients having a maximum potassium value of 6.0 mmol/L ([3]; human, in vivo): one out of eleven
occasions on which vomiting occurs ([4]; human, in vivo): less than 5%
patients who suffered from vomiting ([4]; human, in vivo): none
treatments in which vomiting occurred ([4]; human, in vivo): 8%
Compound: Lys/Arg
tolerability on 4 later occasions in the same patient ([4]; human, in vivo): without any problems

Compound: NCCCC[C@@H](N)C(=O)O [D-lysine]
inhibition at 400 mg/kg [1]: 50%
reducing the rat renal uptake of [^111In-DTPA-D-Phe^1]octreotide and ^90Y-DOTA,Tyr^3-octreotide [6]: capable of reducing

Source: patent EP1196154B1, “INHIBITION OF RENAL UPTAKE OF RADIOMOLECULES WITH A COMBINATION OF LYSINE AND ARGININE” (MALLINCKRODT, INC., priority 1999, dated 2001)
